Laboratory results from patent US8952024B2, “Herbicidal pyrimidone derivatives” (E I du Pont de Nemours and Company, priority 2009, dated 2015).

What was measured:
Format in all cases: in vivo
corn (Zea mays) = experiment: Test B pre-/postemergence plant response
Summary of the method: (§1)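 Greenhouse herbicide screen. Pre- and postemergence (1- to 4-leaf) spray of compound in solvent/surfactant mixture; loam–sand soil for pre, peat/vermiculite medium for post. Visual control rating 0–100 at 13 to 15 days after treatment.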

[1] = system: pigweed (Amaranthus retroflexus); experiment: Test B pre-/postemergence plant response
Summary of the method: as §1

[2] = system: goosegrass (Eleusine indica); experiment: Test B pre-/postemergence plant response
Summary of the method: as §1

[3] = system: lambsquarters (Chenopodium album); experiment: Test B pre-/postemergence plant response
Summary of the method: as §1

soybean (Glycine max) = experiment: Test B pre-/postemergence plant response
Summary of the method: as §1

[4] = system: green foxtail (Setaria viridis); experiment: Test B pre-/postemergence plant response
Summary of the method: as §1

[5] = system: yellow nutsedge (Cyperus esculentus); experiment: Test B pre-/postemergence plant response
Summary of the method: as §1

[6] = system: johnsongrass (Sorghum halepense); experiment: Test B pre-/postemergence plant response
Summary of the method: as §1

[7] = system: giant foxtail (Setaria faberii); experiment: Test B pre-/postemergence plant response
Summary of the method: as §1

[8] = system: velvetleaf (Abutilon theophrasti); experiment: Test B pre-/postemergence plant response
Summary of the method: as §1

[9] = system: winter barley (Hordeum vulgare); experiment: Test B postemergence plant response
Summary of the method: (§2)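 Plants grown in peat/vermiculite medium were sprayed postemergence at 2–18 cm height (1- to 4-leaf stage). After 13–15 days in the greenhouse, response was rated visually against untreated controls on a 0–100 scale (0 no effect, 100 complete control).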

[10] = system: chickweed (Stellaria media); experiment: Test B postemergence plant response
Summary of the method: as §2

[11] = system: canarygrass (Phalaris minor); experiment: Test B postemergence plant response
Summary of the method: as §2

[12] = system: windgrass (Apera spica-venti); experiment: Test B postemergence plant response
Summary of the method: as §2

[13] = 31 g ai/ha, postemergence, scale 0 to 100, 0 is no effect, 100 is complete control
[14] = 62 g ai/ha, postemergence, 0 is no effect, 100 is complete control, 13 to 15 days
[15] = Postemergence, 125 g ai/ha, visual rating after 13 to 15 days, scale 0 (no effect) to 100 (complete control)
[16] = Postemergence, 250 g ai/ha, scale 0 to 100 (0 no effect, 100 complete control)
[17] = 250 g ai/ha, Preemergence, 0 to 100 scale
[18] = Postemergence, 62 g ai/ha, scale 0 (no effect) to 100 (complete control), 13 to 15 days
[19] = Preemergence, 31 g ai/ha, scale 0 to 100 (0 no effect, 100 complete control)
[20] = Preemergence, 62 g ai/ha, scale 0 to 100 (0 no effect, 100 complete control)
[21] = Preemergence, 125 g ai/ha, scale 0 to 100, 0 no effect, 100 complete control

## O=C1CCCC(OC(=O)C2CC2)=C1C(=O)c1cnc(-c2ccccc2)n(-c2ccccc2)c1=O [Compound 88]
Corn (Zea mays); [13]
  Plant response rating, Corn: 15
Corn (Zea mays); [14]
  Corn plant response rating (0 to 100 scale): 65
Corn (Zea mays); [15]
  Plant response rating, Corn: 65
Corn (Zea mays); [16]
  Plant response rating, Corn: 80
[1]; [13]
  Plant response rating, Pigweed: 98
[1]; [14]
  Pigweed plant response rating (0 to 100 scale): 100
[1]; [16]
  Plant response rating, Pigweed: 100
[2]; [13]
  Plant response rating, Goosegrass: 65
[2]; [14]
  Goosegrass plant response rating (0 to 100 scale): 70
[2]; [16]
  Plant response rating, Goosegrass: 70
[3]; [13]
  Plant response rating, Lambsquarters: 95
[3]; [14]
  Lambsquarters plant response rating (0 to 100 scale): 98
[3]; [16]
  Plant response rating, Lambsquarters: 100
Soybean (Glycine max); [13]
  Plant response rating, Soybean: 75
Soybean (Glycine max); [14]
  Soybean plant response rating (0 to 100 scale): 90
Soybean (Glycine max); [16]
  Plant response rating, Soybean: 98
[4]; [13]
  Plant response rating, Foxtail, Green: 95
[4]; [14]
  Foxtail, Green plant response rating (0 to 100 scale): 98
[4]; [16]
  Plant response rating, Foxtail, Green: 100
[5]; [13]
  Plant response rating, Nutsedge, Yellow: 25
[5]; [14]
  Nutsedge, Yellow plant response rating (0 to 100 scale): 65
[5]; [16]
  Plant response rating, Nutsedge, Yellow: 75
[6]; [13]
  Plant response rating, Johnsongrass: 95
[6]; [14]
  Johnsongrass plant response rating (0 to 100 scale): 100
[6]; [16]
  Plant response rating, Johnsongrass: 100
[7]; [13]
  Plant response rating, Foxtail, Giant: 95
[7]; [14]
  Foxtail, Giant plant response rating (0 to 100 scale): 95
[7]; [16]
  Plant response rating, Foxtail, Giant: 95
[8]; [13]
  Plant response rating, Velvetleaf: 80
[8]; [14]
  Velvetleaf plant response rating (0 to 100 scale): 90
[8]; [16]
  Plant response rating, Velvetleaf: 98
[9]; [13]
  Plant response rating, Barley: 30
[9]; [14]
  Barley plant response rating (0 to 100 scale): 30
[9]; [15]
  Plant response rating, Barley: 40
[9]; [16]
  Plant response rating, Barley: 80
[10]; [13]
  Plant response rating, Chickweed: 75
[10]; [14]
  Chickweed plant response rating (0 to 100 scale): 85
[10]; [15]
  Plant response rating, Chickweed: 95
[10]; [16]
  Plant response rating, Chickweed: 95
[11]; [13]
  Plant response rating, Canarygrass: 60
[11]; [14]
  Canarygrass plant response rating (0 to 100 scale): 70
[11]; [15]
  Plant response rating, Canarygrass: 80
[11]; [16]
  Plant response rating, Canarygrass: 90
[12]; [13]
  Plant response rating, Windgrass: 40
[12]; [14]
  Windgrass plant response rating (0 to 100 scale): 60
[12]; [16]
  Plant response rating, Windgrass: 70

## O=C1CCCC(O)=C1C(=O)c1cnc(-c2ccccc2)n(CC2CCCO2)c1=O (centres unmarked) [Compound 59]
Corn (Zea mays); [17]
  Plant response rating, Corn: 0
Corn (Zea mays); [18]
  Plant response rating, Corn: 0
Corn (Zea mays); [15]
  Plant response rating, Corn: 75
Corn (Zea mays); [16]
  Plant response rating, Corn: 75
Corn (Zea mays); [19]
  Plant response rating, Corn: 0
Corn (Zea mays); [20]
  Plant response rating, Corn: 0
Corn (Zea mays); [21]
  Plant response rating, Corn: 0
[1]; [18]
  Plant response rating, Pigweed: 100
[1]; [15]
  Plant response rating, Pigweed: 100
[1]; [16]
  Plant response rating, Pigweed: 100
[1]; [19]
  Plant response rating, Pigweed: 90
[1]; [20]
  Plant response rating, Pigweed: 100
[1]; [21]
  Plant response rating, Pigweed: 100
[2]; [13]
  Plant response rating, Goosegrass: 75
[2]; [17]
  Plant response rating, Goosegrass: 100
[2]; [18]
  Plant response rating, Goosegrass: 80
[2]; [15]
  Plant response rating, Goosegrass: 95
[2]; [16]
  Plant response rating, Goosegrass: 95
[2]; [19]
  Plant response rating, Goosegrass: 98
[2]; [20]
  Plant response rating, Goosegrass: 98
[2]; [21]
  Plant response rating, Goosegrass: 100
[3]; [13]
  Plant response rating, Lambsquarters: 95
[3]; [17]
  Plant response rating, Lambsquarters: 100
[3]; [18]
  Plant response rating, Lambsquarters: 98
[3]; [15]
  Plant response rating, Lambsquarters: 100
[3]; [16]
  Plant response rating, Lambsquarters: 100
[3]; [19]
  Plant response rating, Lambsquarters: 98
[3]; [20]
  Plant response rating, Lambsquarters: 100
[3]; [21]
  Plant response rating, Lambsquarters: 100
Soybean (Glycine max); [13]
  Plant response rating, Soybean: 90
Soybean (Glycine max); [18]
  Plant response rating, Soybean: 95
Soybean (Glycine max); [15]
  Plant response rating, Soybean: 95
Soybean (Glycine max); [16]
  Plant response rating, Soybean: 95
Soybean (Glycine max); [20]
  Plant response rating, Soybean: 0
Soybean (Glycine max); [21]
  Plant response rating, Soybean: 0
[4]; [13]
  Plant response rating, Foxtail, Green: 50
[4]; [17]
  Plant response rating, Foxtail, Green: 98
[4]; [18]
  Plant response rating, Foxtail, Green: 70
[4]; [15]
  Plant response rating, Foxtail, Green: 70
[4]; [16]
  Plant response rating, Foxtail, Green: 70
[4]; [20]
  Plant response rating, Foxtail, Green: 70
[4]; [21]
  Plant response rating, Foxtail, Green: 90
[5]; [13]
  Plant response rating, Nutsedge, Yellow: 45
[5]; [18]
  Plant response rating, Nutsedge, Yellow: 60
[5]; [15]
  Plant response rating, Nutsedge, Yellow: 70
[5]; [16]
  Plant response rating, Nutsedge, Yellow: 75
[5]; [19]
  Plant response rating, Nutsedge, Yellow: 55
[5]; [20]
  Plant response rating, Nutsedge, Yellow: 65
[5]; [21]
  Plant response rating, Nutsedge, Yellow: 85
[6]; [17]
  Plant response rating, Johnsongrass: 90
[6]; [18]
  Plant response rating, Johnsongrass: 75
[6]; [15]
  Plant response rating, Johnsongrass: 100
[6]; [16]
  Plant response rating, Johnsongrass: 100
[6]; [21]
  Plant response rating, Johnsongrass: 80
[7]; [13]
  Plant response rating, Foxtail, Giant: 75
[7]; [17]
  Plant response rating, Foxtail, Giant: 75
[7]; [18]
  Plant response rating, Foxtail, Giant: 90
[7]; [15]
  Plant response rating, Foxtail, Giant: 95
[7]; [16]
  Plant response rating, Foxtail, Giant: 95
[7]; [19]
  Plant response rating, Foxtail, Giant: 0
[7]; [20]
  Plant response rating, Foxtail, Giant: 0
[7]; [21]
  Plant response rating, Foxtail, Giant: 60
[8]; [13]
  Plant response rating, Velvetleaf: 85
[8]; [18]
  Plant response rating, Velvetleaf: 90
[8]; [15]
  Plant response rating, Velvetleaf: 95
[8]; [16]
  Plant response rating, Velvetleaf: 98
[8]; [19]
  Plant response rating, Velvetleaf: 75
[8]; [20]
  Plant response rating, Velvetleaf: 90
[8]; [21]
  Plant response rating, Velvetleaf: 100
[9]; [13]
  Plant response rating, Barley: 0
[9]; [18]
  Plant response rating, Barley: 0
[9]; [15]
  Plant response rating, Barley: 10
[9]; [16]
  Plant response rating, Barley: 10
[10]; [13]
  Plant response rating, Chickweed: 85
[10]; [18]
  Plant response rating, Chickweed: 98
[10]; [15]
  Plant response rating, Chickweed: 98
[10]; [16]
  Plant response rating, Chickweed: 100
[11]; [13]
  Plant response rating, Canarygrass: 5
[11]; [18]
  Plant response rating, Canarygrass: 5
[11]; [15]
  Plant response rating, Canarygrass: 50
[11]; [16]
  Plant response rating, Canarygrass: 70
[12]; [13]
  Plant response rating, Windgrass: 20
[12]; [18]
  Plant response rating, Windgrass: 60
[12]; [15]
  Plant response rating, Windgrass: 60
[12]; [16]
  Plant response rating, Windgrass: 70
